Experimental data from patent US20030061633A1, “Modified dhps genes” (priority 1999, published 2003).

What was measured:
[1] = tested on: dihydrodipicolinate synthase (DHPS); conditions: cited from earlier work
E. coli DHPS = E. coli DHPS (Escherichia coli, UniProt P0A6L2); conditions: read-out: I50 of E. coli DHPS for lysine; cited from earlier work
DHPS = DHPS enzyme activity in transgenic tubers (O-aminobenzaldehyde method); assay type: biochemical; conditions: transformed (mutant DHPS) versus control potato tubers
Method: Microtubers or mature tubers were homogenised with mortar and pestle in an equal volume of cold 100 mM Tris-HCl pH 7.5 containing 2 mM EDTA, 1.4% sodium ascorbate, 1 mM phenylmethylsulphonilfluoride and 0.5 Tg/ml leupeptin. Following 5 min. centrifugation (16,000 g at 4° C.) the supernatant is collected. DHPS activity was measured using the O-aminobenzaldehyde (O-ABA) method of Yugari and Gilvarg (Yugari, Y. and Gilvarg, C. (1965) J. Biol. Chem. 240: 4710-4716).

Sequence of E. coli DHPS (P0A6L2 whole entry): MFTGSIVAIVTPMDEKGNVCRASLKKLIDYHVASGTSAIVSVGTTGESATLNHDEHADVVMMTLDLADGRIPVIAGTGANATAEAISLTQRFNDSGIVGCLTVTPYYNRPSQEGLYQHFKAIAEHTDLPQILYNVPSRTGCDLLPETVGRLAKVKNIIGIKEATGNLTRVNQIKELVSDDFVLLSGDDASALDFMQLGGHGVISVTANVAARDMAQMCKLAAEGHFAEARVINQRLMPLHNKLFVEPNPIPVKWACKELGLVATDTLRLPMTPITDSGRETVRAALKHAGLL

| SMILES | sensitivity of plant DHPS to lysine inhibition relative to E. coli DHPS ([1]; more sensitive than E. coli DHPS) | sensitivity of plant DHPS to lysine inhibition relative to plant lysine-sensitive AKs ([1]; more sensitive than plant lysine-sensitive AKs) | IC50 (E. coli DHPS) | AEC sensitivity of DHPS activity (DHPS) |
| --- | --- | --- | --- | --- |
| NCCCC[C@H](N)C(=O)O [lysine] | about 100 fold | about 10 fold | ~1000 µM | – |
| NCCSC[C@H](N)C(=O)O [AEC, S-(2-aminoethyl)-L-cysteine] | – | – | – | reduced |
